Columns and labels:
[1] = test system: GABAA receptor complex (GRC); test: [35S]TBPS binding assay, rat cortex; conditions: 2 nM [35S]TBPS
24 hour thirsted rats = test: Vogel Model of Anxiety (Vogel Conflict); assay type: in vivo, rat; conditions: compared with Diazepam (DZP), FIG. 4
Protocol: Adult male rats are randomly divided into groups of 6 rats/group. Animals were deprived of water overnight (24 hr). Food was freely available at time of thirsting. Thirty minutes after injection (i.p.) of test drug, positive control drug (diazepam, 1 mg/kg), or vehicle control rats are placed in a square Plexiglas box containing a stainless steel bottom connected to one side of a drinkometer circuit. At the other side of the drinkometer circuit a water bottle, placed so the drink tube extends into the Plexiglas box, is connected. When a subject drinks from the bottle the circuit is closed and an electric shock is delivered at the tube after seven licks are recorded. The number of licks in a 3 min session is recorded. Anti-anxiety agents will increase the number of shocks the animal is willing to endure to acquire water.

GABAA receptor = test: [3H]Muscimol binding assay, rat cortex; conditions: 5 nM [3H]muscimol, FIG. 7
Protocol: [^3H]Muscimol binding assay: The cortex from male Sprague-Dawley rats (160-200 g) was removed immediately after euthanizing and dissected over ice. The tissue was homogenized in 15 vol of 0.32M sucrose followed by centrifugation for 10 min at 1000× g. The supernatant was transferred to a 38 mL polycarbonate tube (Beckman Instruments, Palo Alto Calif.) and centrifuged at 20,000× g for 20 min. The membrane pellet was resuspended in 10 vol of dH2O and centrifuged at 8,000× g for 20 min. The resulting pellet was washed with dH2O once and with Na^+-free assay buffer (40 mM KH2PO4, 100 mM KCl, pH 7.4). The pellet was resuspended in 35 mL of Na^+-free assay buffer, incubated at 37° C. for thirty minutes and then centrifuged 31,000× g for twenty minutes. The final pellet was resuspended in 10 vol of Na^+-free assay buffer. Protein concentration of membrane preparations was ˜1 mg/mL by BCA reagent protein assay. Aliquots of membrane suspension (100 μL) were incubated in Na^+-free assay buffer with 5 nM [^3H]muscimol (25 Ci/mmol, New England Nuclear, Boston, Mass.) and 5 μL of dimethylsulfoxide (DMSO) or drug dissolved in DMSO. The final volume of the incubation medium was 1 mL. […] Filter-bound radioactivity was quantified by LSC after an overnight extraction. The data were evaluated by nonlinear regression to obtain IC50 and EC50 values.

Male NSA mice = test: Mouse Light-Dark Transition Model of Anxiety; assay type: in vivo; conditions: compared with Diazepam (DZP), FIG. 3
Protocol: Male NSA mice (25-30 g) are used. The apparatus consists of an open-topped box divided into small and large area by a partition that has a hole at floor level. The small compartment is painted black and the large compartment white. The white compartment was illuminated with light and the black compartment with red light. The time spent in the light versus dark compartments and the number of transitions between compartments is recorded during a 5 min test session. Vehicle or test compounds are administered 30 min prior to the test. Diazepam is administered (i.p.) at 2 mg/kg as the positive control. Anti-anxiety agents will reduce the time the animals will spend in the dark compartment and increase the number of transitions between the two compartments.

BZ receptors = test: [3H]Flunitrazepam binding, rat cortex; conditions: 0.2 nM [3H]flunitrazepam, FIG. 6
Protocol: [^3H]Flunitrazepam binding: assays were carried out under identical conditions, using an identical tissue preparation, as those used in the [^35S]TBPS binding assays with the exception that 1 μM GABA was added to all samples instead of 5 μM GABA. [^3H]Flunitrazepam, 0.2 nM (75 Ci/mmol, New England Nuclear, Boston, Mass.) was used to label BZ sites. Non-specific binding is defined as binding in the presence of 1 μM clonazepam. The data were evaluated by nonlinear regression to obtain IC50 and EC50 values.

[2] = absence or presence of 3 μM and 10 μM (+)-bicuculline, FIG. 5

How did the “interaction with 5α,20α-diol inhibition of [35S]TBPS binding (neurosteroid site)” value ([1]; 10 μM compound 3 or 100 nM 3α,5α-P, rat cortex, FIG. 8) turn out when `CCn1cc(C(=O)O)c(=O)c2cc(NC3CCCc4ccccc43)c(Cl)cc21` (stereo not shown) [compound 3, 7-chloro-1-ethyl-6-(1,2,3,4-tetrahydronaphthyl-1-amino)-4-oxo-1,4-dihydroquinoline-3-carboxylic acid] was run?
The value was “does not act directly on the neurosteroid site of the GRC”.

And the “effect on [35S]TBPS binding in absence or presence of norfloxacin” value ([1]; 30 μM and 100 μM norfloxacin, rat cortex, FIG. 9)?
The value was “does not act directly at the same site as the antibacterial quinolone norfloxacin”.

What about the “effect on [35S]TBPS binding in absence or presence of Ro5-4864 (4′-chlorodiazepam)” value ([1]; 0.3, 1 and 30 μM Ro5-4864, rat cortex, FIG. 11) of the same compound?
The value was “does not act directly at the same site as 4′-chlorodiazepam”.

And the “dependence on GABA of the effect on [35S]TBPS binding” value [1, 2]?
Its value is “absolute dependence of compound 3 on GABA for efficacy”.

What about the “site of action relative to the [35S]TBPS site” value [1, 2] of the same compound?
The value was “allosterically coupled to and does not act directly on the [^35S]TBPS site”.

And the “dissociation of [35S]TBPS binding in absence or presence of pentobarbital” value ([1]; initiated by 10 μM compound 3, 30 μM pentobarbital, rat cortex, FIG. 10)?
Its value is “do not share a common site of action”.

And the “anti-anxiety effects, punished responding (number of licks during a 3 minute period)” value (24 hour thirsted rats)?
Its value is “comparable to that of DZP”.

What about the “effect on [3H]muscimol binding to the GABAA receptor” value (GABAA receptor) of the same compound?
The value was “does not act directly on the GABAA receptor”.

What about the “anti-anxiety effects, time spent in the dark” value (Male NSA mice) of the same compound?
Its value is “comparable to that of DZP”.

And the “effect on [3H]flunitrazepam binding to BZ receptors” value (BZ receptors)?
The value was “allosterically coupled to and does not act directly on the BZ receptor”.
